The source made the active and inactive calls. The calls are words filed in the database; no cut-off is given here.
Tests used:
CHO [1] = experiment: Cytotoxicity against wild type CHO cells assessed as growth inhibition after 96 hrs by MTT assay; type: functional, cell-based; details: Cricetulus griseus
CHO [2] = experiment: Cytotoxicity against CHO cells transfected with CYP1A1 assessed as growth inhibition after 96 hrs by MTT assay; type: functional, cell-based; details: Cricetulus griseus
Cytochrome P450 1A1 [3] = molecular target: T1, Cytochrome P450 1A1 (Homo sapiens, UniProt P04798); experiment: Drug level in presence of CYP1A1 (unknown origin) expressed in bactosomes treated with 1-amino-3-methyl-1-oxobut-3-en-2-yl 3-methoxy-5-methyl-1-naphthoate measured for 180 mins by LC/MS/MS analysis; type: ADME; details: recombinant enzyme, 3 h
T1 sequence (P04798 whole entry): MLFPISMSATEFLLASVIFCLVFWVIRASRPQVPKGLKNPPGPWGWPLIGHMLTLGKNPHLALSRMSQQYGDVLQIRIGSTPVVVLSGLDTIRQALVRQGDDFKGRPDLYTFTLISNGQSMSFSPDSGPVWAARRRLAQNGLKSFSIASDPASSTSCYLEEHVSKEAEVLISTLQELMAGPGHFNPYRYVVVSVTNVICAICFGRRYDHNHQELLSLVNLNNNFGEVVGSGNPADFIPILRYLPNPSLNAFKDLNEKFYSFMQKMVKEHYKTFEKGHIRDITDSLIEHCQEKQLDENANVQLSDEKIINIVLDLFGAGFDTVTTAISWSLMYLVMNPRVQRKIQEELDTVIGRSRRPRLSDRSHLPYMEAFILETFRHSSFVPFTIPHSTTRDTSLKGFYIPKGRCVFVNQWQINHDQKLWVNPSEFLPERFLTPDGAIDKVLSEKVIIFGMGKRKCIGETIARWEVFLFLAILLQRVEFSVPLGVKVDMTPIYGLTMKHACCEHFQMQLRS

Cytochrome P450 1B1 [4] = molecular target: T2, Cytochrome P450 1B1 (Homo sapiens, UniProt Q16678); experiment: Drug level in presence of CYP1B1 (unknown origin) expressed in bactosomes treated with 1-amino-3-methyl-1-oxobut-3-en-2-yl 3-methoxy-5-methyl-1-naphthoate measured for 180 mins by LC/MS/MS analysis; type: ADME; details: recombinant enzyme, 3 h
T2 sequence (Q16678 whole entry): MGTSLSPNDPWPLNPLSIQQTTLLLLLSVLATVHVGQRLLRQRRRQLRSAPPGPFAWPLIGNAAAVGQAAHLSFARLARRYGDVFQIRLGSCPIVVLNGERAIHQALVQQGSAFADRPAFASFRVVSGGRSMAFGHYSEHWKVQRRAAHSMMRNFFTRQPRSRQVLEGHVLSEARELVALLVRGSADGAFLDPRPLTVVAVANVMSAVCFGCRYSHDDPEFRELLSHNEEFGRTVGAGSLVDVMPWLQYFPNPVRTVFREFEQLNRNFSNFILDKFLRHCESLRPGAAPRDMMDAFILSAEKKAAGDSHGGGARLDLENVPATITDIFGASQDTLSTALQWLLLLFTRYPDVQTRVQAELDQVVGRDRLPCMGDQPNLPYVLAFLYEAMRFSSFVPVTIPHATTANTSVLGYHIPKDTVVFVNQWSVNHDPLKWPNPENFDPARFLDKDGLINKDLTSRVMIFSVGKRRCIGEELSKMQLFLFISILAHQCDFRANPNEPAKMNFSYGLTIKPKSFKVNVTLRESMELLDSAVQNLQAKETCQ

Cytochrome P450 3A4 [5] = molecular target: T3, Cytochrome P450 3A4 (Homo sapiens, UniProt P08684); experiment: Drug level in presence of CYP3A4 (unknown origin) expressed in bactosomes treated with 1-amino-3-methyl-1-oxobut-3-en-2-yl 3-methoxy-5-methyl-1-naphthoate measured for 180 mins by LC/MS/MS analysis; type: ADME; details: recombinant enzyme, 3 h
CHO [6] = experiment: Induction of DNA damage in wild type CHO cells assessed as DNA single strand breaks at 50 uM after 1 hr by alkaline comet assay in absence of CYP3A4 expressed in bactosomes; type: functional, cell-based; details: Cricetulus griseus
CHO [7] = experiment: Induction of DNA damage in wild type CHO cells assessed as DNA interstrand cross-links by measuring decrease in mean tail moment at 50 uM after 1 hr by alkaline comet assay in presence of CYP3A4 expressed in bactosomes; type: functional, cell-based; details: Cricetulus griseus
CHO [8] = experiment: Cytotoxicity against wild type CHO cells assessed as growth inhibition preincubated with CYP3A4 expressed in bactosomes for 1 hr followed by cell addition measured after 96 hrs by MTT assay; type: functional, cell-based; details: Cricetulus griseus
CHO [9] = experiment: Potentiation factor, ratio of IC50 for wild type CHO cells in absence of CYP1A1 expressed in bactosomes to IC50 for wild type CHO cells in presence of CYP1A1 expressed in bactosomes; type: functional, Cricetulus griseus
CHO [10] = experiment: Potentiation factor, ratio of IC50 for wild type CHO cells in absence of CYP3A4 expressed in bactosomes to IC50 for wild type CHO cells in presence of CYP3A4 expressed in bactosomes; type: functional, Cricetulus griseus
Cytochrome P450 1A1 [11] = molecular target: T1, Cytochrome P450 1A1; experiment: Drug metabolism assessed as CYP1A1 (unknown origin) expressed in bactosomes-mediated (1R)-2-amino-1-(2-methyloxiran-2-yl)-2-oxoethyl 3-methoxy-5-methyl-1-naphthoate formation measured for 180 mins by LC/MS/MS analysis; type: ADME; details: recombinant enzyme, 3 h
CHO [12] = experiment: Cytotoxicity against wild type CHO cells assessed as growth inhibition preincubated with CYP1A1 expressed in bactosomes for 1 hr followed by cell addition measured after 96 hrs by MTT assay; type: functional, cell-based; details: Cricetulus griseus
CHO [13] = experiment: Cytotoxicity against wild type CHO cells assessed as growth inhibition preincubated with CYP1A2 expressed in bactosomes for 1 hr followed by cell addition measured after 96 hrs by MTT assay; type: functional, cell-based; details: Cricetulus griseus
CHO [14] = experiment: Cytotoxicity against wild type CHO cells assessed as growth inhibition preincubated with CYP1B1 expressed in bactosomes for 1 hr followed by cell addition measured after 96 hrs by MTT assay; type: functional, cell-based; details: Cricetulus griseus
CHO [15] = experiment: Cytotoxicity against wild type CHO cells assessed as growth inhibition preincubated with CYP2D6 expressed in bactosomes for 1 hr followed by cell addition measured after 96 hrs by MTT assay; type: functional, cell-based; details: Cricetulus griseus
CHO [16] = experiment: Potentiation factor, ratio of IC50 for wild type CHO cells in absence of CYP1A2 expressed in bactosomes to IC50 for wild type CHO cells in presence of CYP1A2 expressed in bactosomes; type: functional, Cricetulus griseus
CHO [17] = experiment: Potentiation factor, ratio of IC50 for wild type CHO cells in absence of CYP1B1 expressed in bactosomes to IC50 for wild type CHO cells in presence of CYP1B1 expressed in bactosomes; type: functional, Cricetulus griseus
CHO [18] = experiment: Potentiation factor, ratio of IC50 for wild type CHO cells in absence of CYP2D6 expressed in bactosomes to IC50 for wild type CHO cells in presence of CYP2D6 expressed in bactosomes; type: functional, Cricetulus griseus
CHO [19] = experiment: Induction of DNA damage in wild type CHO cells assessed as DNA single strand breaks at 50 uM after 1 hr by alkaline comet assay in presence of CYP3A4 expressed in bactosomes; type: functional, cell-based; details: Cricetulus griseus
CHO [20] = experiment: Induction of DNA damage in wild type CHO cells assessed as DNA double strand breaks by measuring increase in mean tail moment at 50 uM after 1 hr by neutral comet assay in absence of CYP3A4 expressed in bactosomes; type: functional, cell-based; details: Cricetulus griseus
CHO [21] = experiment: Induction of DNA damage in wild type CHO cells assessed as DNA double strand breaks by measuring increase in mean tail moment at 50 uM after 1 hr by neutral comet assay in presence of CYP3A4 expressed in bactosomes; type: functional, cell-based; details: Cricetulus griseus
CHO [22] = experiment: Induction of DNA damage in wild type CHO cells assessed as DNA interstrand cross-links by measuring decrease in mean tail moment at 50 uM after 1 hr by alkaline comet assay in absence of CYP3A4 bactosomes; type: functional, cell-based; details: Cricetulus griseus
SW480 = experiment: Cytotoxicity against human SW480 cells transfected with CYP2W1 assessed as growth inhibition at 0.001 to 100 uM after 96 hrs by MTT assay; type: functional, cell-based
SGC-7901 [23] = experiment: Cytotoxicity against human SGC7901 cells expressing CYP1A1 mRNA assessed as growth inhibition after 96 hrs by MTT assay; type: functional, cell-based
SGC-7901 [24] = experiment: Cytotoxicity against human SGC7901 cells expressing CYP3A4 mRNA assessed as growth inhibition after 96 hrs by MTT assay; type: functional, cell-based
MKN-45 [25] = experiment: Cytotoxicity against human MKN45 cells expressing CYP1A1 mRNA assessed as growth inhibition after 96 hrs by MTT assay; type: functional, cell-based
MKN-45 [26] = experiment: Cytotoxicity against human MKN45 cells expressing CYP3A4 mRNA assessed as growth inhibition after 96 hrs by MTT assay; type: functional, cell-based
SGC-7901 [27] = experiment: Cytotoxicity against human SGC7901 cells expressing CYP1A1 protein assessed as growth inhibition after 96 hrs by MTT assay; type: functional, cell-based
SGC-7901 [28] = experiment: Cytotoxicity against human SGC7901 cells expressing CYP3A4 protein assessed as growth inhibition after 96 hrs by MTT assay; type: functional, cell-based
MKN-45 [29] = experiment: Cytotoxicity against human MKN45 cells expressing CYP1A1 protein assessed as growth inhibition after 96 hrs by MTT assay; type: functional, cell-based
MKN-45 [30] = experiment: Cytotoxicity against human MKN45 cells expressing CYP3A4 protein assessed as growth inhibition after 96 hrs by MTT assay; type: functional, cell-based
Cytochrome P450 3A4 [31] = molecular target: T3, Cytochrome P450 3A4; experiment: Drug metabolism assessed as CYP3A4 (unknown origin) expressed in bactosomes-mediated (1S)-2-amino-1-(2-methyloxiran-2-yl)-2-oxoethyl 3-methoxy-5-methyl-1-naphthoate formation measured for 180 mins by LC/MS/MS analysis; type: ADME; details: recombinant enzyme, 3 h
Cytochrome P450 1B1 [32] = molecular target: T2, Cytochrome P450 1B1; experiment: Drug metabolism assessed as CYP1B1 (unknown origin) expressed in bactosomes-mediated (1R)-2-amino-1-(2-methyloxiran-2-yl)-2-oxoethyl 3-methoxy-5-methyl-1-naphthoate/(1S)-2-amino-1-(2-methyloxiran-2-yl)-2-oxoethyl 3-methoxy-5-methyl-1-naphthoate formation measured for 180 mins by LC/MS/MS analysis; type: ADME; details: recombinant enzyme, 3 h

T3 sequence (P08684 whole entry): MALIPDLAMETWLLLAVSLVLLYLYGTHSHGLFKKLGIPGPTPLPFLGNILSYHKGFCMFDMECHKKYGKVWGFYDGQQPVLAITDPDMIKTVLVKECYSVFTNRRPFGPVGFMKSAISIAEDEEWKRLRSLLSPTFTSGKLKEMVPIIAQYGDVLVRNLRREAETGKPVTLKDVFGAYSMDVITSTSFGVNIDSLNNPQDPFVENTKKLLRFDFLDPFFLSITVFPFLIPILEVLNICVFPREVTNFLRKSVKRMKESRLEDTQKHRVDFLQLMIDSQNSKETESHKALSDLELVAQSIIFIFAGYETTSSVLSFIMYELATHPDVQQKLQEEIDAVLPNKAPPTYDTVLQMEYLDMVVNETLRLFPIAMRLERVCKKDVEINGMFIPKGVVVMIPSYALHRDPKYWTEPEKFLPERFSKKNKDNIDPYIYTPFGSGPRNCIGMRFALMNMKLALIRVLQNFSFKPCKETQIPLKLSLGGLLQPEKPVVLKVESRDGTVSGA

C=C(C)[C@@H](OC(=O)c1cccc2ccccc12)C(N)=O
IC50 (CHO [1]): > 100 µM
IC50 (CHO [2]): > 100 µM

COc1cc(C(=O)O[C@@H](C(N)=O)C2(C)CO2)c2cccc(C)c2c1 (some centres not stated)
IC50 (CHO [1]): 5.7 µM
IC50 (CHO [2]): 6 µM
Drug metabolism (Cytochrome P450 1A1 [3]): metabolite_detected
Drug metabolism (Cytochrome P450 1B1 [4]): metabolite_detected

CC1([C@@H](OC(=O)c2ccc(F)c3ccccc23)C(N)=O)CO1 (some centres not stated)
IC50 (CHO [1]): 7 µM
IC50 (CHO [2]): 2 µM

COc1cc(C(=O)O[C@H](C(N)=O)C2(C)CO2)c2cccc(C)c2c1 (some centres not stated)
IC50 (CHO [1]): 2.8 µM
IC50 (CHO [2]): 3.2 µM
Drug metabolism (Cytochrome P450 3A4 [5]): metabolite_detected
Drug metabolism (Cytochrome P450 1B1 [4]): metabolite_detected

Cc1ccc(C(=O)O[C@@H](C(N)=O)C2(C)CO2)c2ccccc12 (some centres not stated)
IC50 (CHO [1]): 5 µM
IC50 (CHO [2]): 9 µM

C=C(C)[C@@H](OC(=O)c1ccc(C)c2ccccc12)C(N)=O
IC50 (CHO [1]): > 100 µM
IC50 (CHO [2]): > 100 µM

CC1([C@H](OC(=O)c2cccc3ccccc23)C(N)=O)CO1 (some centres not stated)
IC50 (CHO [1]): 10 µM
IC50 (CHO [2]): 5 µM

C=C(C)[C@@H](OC(=O)c1cc(OC)cc2c(C)cccc12)C(N)=O
Activity (CHO [6]): inactive
Activity (CHO [7]): Active
IC50 (CHO [8]): 3.34 µM
Ratio IC50 (CHO [9]): 5.8
Ratio IC50 (CHO [10]): 24.4
Drug metabolism (Cytochrome P450 1A1 [11]): metabolite_detected
IC50 (CHO [1]): 81.6 µM
IC50 (CHO [2]): 6.3 µM
IC50 (CHO [12]): 14.2 µM
IC50 (CHO [13]): 20.3 µM
IC50 (CHO [14]): 11.8 µM
IC50 (CHO [15]): 28.3 µM
Ratio IC50 (CHO [16]): 4
Ratio IC50 (CHO [17]): 7
Ratio IC50 (CHO [18]): 2.9
Activity (CHO [19]): Active
Activity (CHO [20]): inactive
Activity (CHO [21]): inactive
Activity (CHO [22]): inactive
growth inhibition (GI) (SW480): inactive
growth inhibition (GI) (SGC-7901 [23]): Dose-dependent effect
growth inhibition (GI) (SGC-7901 [24]): Dose-dependent effect
growth inhibition (GI) (MKN-45 [25]): Dose-dependent effect
growth inhibition (GI) (MKN-45 [26]): Dose-dependent effect
growth inhibition (GI) (SGC-7901 [27]): Dose-dependent effect
growth inhibition (GI) (SGC-7901 [28]): Dose-dependent effect
growth inhibition (GI) (MKN-45 [29]): Dose-dependent effect
growth inhibition (GI) (MKN-45 [30]): Dose-dependent effect
Drug metabolism (Cytochrome P450 3A4 [31]): metabolite_detected
Drug metabolism (Cytochrome P450 1B1 [32]): metabolite_detected

COc1ccc2c(OC)ccc(C(=O)O[C@@H](C(N)=O)C3(C)CO3)c2c1 (some centres not stated)
IC50 (CHO [1]): 3 µM
IC50 (CHO [2]): 9 µM

C=C(C)[C@@H](OC(=O)c1ccc(F)c2ccccc12)C(N)=O
IC50 (CHO [1]): > 100 µM
IC50 (CHO [2]): > 100 µM

COc1ccc2c(OC)ccc(C(=O)O[C@H](C(N)=O)C3(C)CO3)c2c1 (some centres not stated)
IC50 (CHO [1]): 6 µM
IC50 (CHO [2]): 3 µM

C=C(C)[C@@H](OC(=O)c1ccc(OC)c2ccc(OC)cc12)C(N)=O
IC50 (CHO [1]): > 100 µM
IC50 (CHO [2]): > 100 µM

CC1([C@@H](OC(=O)c2cccc3ccccc23)C(N)=O)CO1 (some centres not stated)
IC50 (CHO [1]): 10 µM
IC50 (CHO [2]): 9 µM

CC1([C@H](OC(=O)c2ccc(F)c3ccccc23)C(N)=O)CO1 (some centres not stated)
IC50 (CHO [1]): 7 µM
IC50 (CHO [2]): 3 µM

Cc1ccc(C(=O)O[C@H](C(N)=O)C2(C)CO2)c2ccccc12 (some centres not stated)
IC50 (CHO [1]): 6 µM
IC50 (CHO [2]): 3 µM

— ChEMBL document CHEMBL3621198, “Probing cytochrome P450-mediated activation with a truncated azinomycin analogue” (Medchemcomm, 2015)
